Four compounds from BindingDB's records for doi:10.1111/j.1747-0285.2009.00857.x (Istituto Di Biostrutture E Bioimmagini-Cnr, 2009) can be followed below.

Targets include Carbonic anhydrase 4 (Homo sapiens, UniProt P22748); Carbonic anhydrase 3 (Homo sapiens, UniProt P07451); Carbonic anhydrase 14 (Homo sapiens, UniProt Q9ULX7); Carbonic anhydrase 13 (Homo sapiens, UniProt Q8N1Q1); Carbonic anhydrase 7 (Homo sapiens, UniProt P43166); Carbonic anhydrase 12 (Homo sapiens, UniProt O43570); Carbonic anhydrase 2 (Homo sapiens, UniProt P00918); Carbonic anhydrase 6 (Homo sapiens, UniProt P23280); Carbonic anhydrase 1 (Homo sapiens, UniProt P00915).

What all share (assay): Inhibition Assay
Details in all cases: pH 7.5; 20 °C

Experiment [1] deals with Carbonic anhydrase 5A, mitochondrial (Homo sapiens, UniProt P35218).
Chain of Carbonic anhydrase 5A, mitochondrial (P35218 whole entry): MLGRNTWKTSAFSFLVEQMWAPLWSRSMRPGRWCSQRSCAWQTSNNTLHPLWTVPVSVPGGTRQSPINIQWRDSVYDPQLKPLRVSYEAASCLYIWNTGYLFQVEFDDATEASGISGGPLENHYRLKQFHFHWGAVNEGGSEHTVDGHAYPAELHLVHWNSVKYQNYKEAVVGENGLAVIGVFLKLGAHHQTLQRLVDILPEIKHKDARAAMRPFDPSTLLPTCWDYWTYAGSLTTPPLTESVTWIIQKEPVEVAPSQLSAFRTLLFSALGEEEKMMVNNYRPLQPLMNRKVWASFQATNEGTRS
Description: (§1) Inhibition assay using carbonic anhydrases with an SX.18MV-R, a stopped-flow instrument from Applied Photophysics was used for assaying the CA catalyzed CO2 hydration activity.
In experiment [2] the target is Carbonic anhydrase 5B, mitochondrial (Homo sapiens, UniProt Q9Y2D0).
Chain of Carbonic anhydrase 5B, mitochondrial (Q9Y2D0 whole entry): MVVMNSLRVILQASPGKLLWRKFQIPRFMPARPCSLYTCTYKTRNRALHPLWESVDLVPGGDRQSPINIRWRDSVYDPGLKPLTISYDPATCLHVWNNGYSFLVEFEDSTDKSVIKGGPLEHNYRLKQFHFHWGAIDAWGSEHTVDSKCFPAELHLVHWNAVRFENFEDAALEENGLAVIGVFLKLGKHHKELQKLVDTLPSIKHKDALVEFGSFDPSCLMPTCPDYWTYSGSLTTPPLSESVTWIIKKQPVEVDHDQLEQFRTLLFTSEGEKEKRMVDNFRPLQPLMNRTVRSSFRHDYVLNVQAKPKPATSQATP
Description: as §1

Chain of Carbonic anhydrase 1 (P00915 whole entry): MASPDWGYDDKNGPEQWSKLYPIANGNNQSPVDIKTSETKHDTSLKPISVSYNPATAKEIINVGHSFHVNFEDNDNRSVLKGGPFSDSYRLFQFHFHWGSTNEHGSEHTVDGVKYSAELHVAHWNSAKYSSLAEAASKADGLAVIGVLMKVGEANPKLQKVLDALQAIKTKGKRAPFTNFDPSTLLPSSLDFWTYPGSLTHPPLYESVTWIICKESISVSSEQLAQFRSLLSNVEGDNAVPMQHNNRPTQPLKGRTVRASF
Chain of Carbonic anhydrase 14 (Q9ULX7 whole entry): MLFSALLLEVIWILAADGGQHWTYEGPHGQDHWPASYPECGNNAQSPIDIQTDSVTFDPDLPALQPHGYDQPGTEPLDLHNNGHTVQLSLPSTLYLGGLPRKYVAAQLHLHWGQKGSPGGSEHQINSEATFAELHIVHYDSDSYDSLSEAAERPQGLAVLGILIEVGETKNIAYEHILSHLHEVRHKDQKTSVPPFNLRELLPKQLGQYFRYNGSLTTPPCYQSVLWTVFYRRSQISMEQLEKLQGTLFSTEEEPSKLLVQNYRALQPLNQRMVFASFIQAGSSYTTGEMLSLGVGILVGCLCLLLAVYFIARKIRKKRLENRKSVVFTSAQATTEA
Chain of Carbonic anhydrase 13 (Q8N1Q1 whole entry): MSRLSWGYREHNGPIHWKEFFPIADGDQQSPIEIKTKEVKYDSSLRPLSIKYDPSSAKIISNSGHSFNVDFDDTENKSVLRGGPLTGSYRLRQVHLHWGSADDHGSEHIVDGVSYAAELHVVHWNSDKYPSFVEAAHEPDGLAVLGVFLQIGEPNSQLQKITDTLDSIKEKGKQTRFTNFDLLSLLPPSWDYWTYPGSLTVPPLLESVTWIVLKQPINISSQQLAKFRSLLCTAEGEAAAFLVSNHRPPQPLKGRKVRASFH
Chain of Carbonic anhydrase 12 (O43570 whole entry): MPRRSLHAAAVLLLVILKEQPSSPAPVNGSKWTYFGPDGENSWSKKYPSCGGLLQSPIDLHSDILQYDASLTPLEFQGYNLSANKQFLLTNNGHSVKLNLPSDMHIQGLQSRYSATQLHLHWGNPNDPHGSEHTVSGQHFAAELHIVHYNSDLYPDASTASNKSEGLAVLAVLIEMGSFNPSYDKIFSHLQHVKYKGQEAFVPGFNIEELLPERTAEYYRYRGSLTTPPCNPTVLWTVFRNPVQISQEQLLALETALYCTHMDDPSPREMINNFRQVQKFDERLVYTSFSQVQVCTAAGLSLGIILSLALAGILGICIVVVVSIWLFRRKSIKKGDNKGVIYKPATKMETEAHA
Chain of Carbonic anhydrase 4 (P22748 whole entry): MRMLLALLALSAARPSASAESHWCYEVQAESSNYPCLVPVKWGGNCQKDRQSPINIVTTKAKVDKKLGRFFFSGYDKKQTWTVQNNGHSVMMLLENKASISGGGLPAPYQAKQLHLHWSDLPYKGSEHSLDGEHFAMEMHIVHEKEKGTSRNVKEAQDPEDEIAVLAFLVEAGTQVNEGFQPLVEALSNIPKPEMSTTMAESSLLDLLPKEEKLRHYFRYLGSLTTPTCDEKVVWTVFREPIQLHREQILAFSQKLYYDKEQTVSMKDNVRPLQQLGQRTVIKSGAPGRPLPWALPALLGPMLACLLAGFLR
Chain of Carbonic anhydrase 3 (P07451 whole entry): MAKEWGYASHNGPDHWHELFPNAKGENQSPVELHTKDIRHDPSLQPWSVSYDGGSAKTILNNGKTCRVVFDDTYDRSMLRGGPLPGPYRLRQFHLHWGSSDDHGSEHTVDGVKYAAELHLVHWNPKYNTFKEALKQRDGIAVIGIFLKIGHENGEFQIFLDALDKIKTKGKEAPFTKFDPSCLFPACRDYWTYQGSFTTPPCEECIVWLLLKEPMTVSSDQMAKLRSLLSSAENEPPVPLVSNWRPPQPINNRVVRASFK
Chain of Carbonic anhydrase 6 (P23280 whole entry): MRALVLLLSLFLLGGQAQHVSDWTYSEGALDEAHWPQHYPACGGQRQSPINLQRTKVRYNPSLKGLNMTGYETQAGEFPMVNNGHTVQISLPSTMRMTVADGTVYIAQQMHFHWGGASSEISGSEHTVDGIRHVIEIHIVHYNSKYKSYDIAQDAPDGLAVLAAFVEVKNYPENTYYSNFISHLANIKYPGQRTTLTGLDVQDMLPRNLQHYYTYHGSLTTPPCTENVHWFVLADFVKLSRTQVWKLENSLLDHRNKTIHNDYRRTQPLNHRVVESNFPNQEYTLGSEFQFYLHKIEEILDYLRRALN
Chain of Carbonic anhydrase 7 (P43166 whole entry): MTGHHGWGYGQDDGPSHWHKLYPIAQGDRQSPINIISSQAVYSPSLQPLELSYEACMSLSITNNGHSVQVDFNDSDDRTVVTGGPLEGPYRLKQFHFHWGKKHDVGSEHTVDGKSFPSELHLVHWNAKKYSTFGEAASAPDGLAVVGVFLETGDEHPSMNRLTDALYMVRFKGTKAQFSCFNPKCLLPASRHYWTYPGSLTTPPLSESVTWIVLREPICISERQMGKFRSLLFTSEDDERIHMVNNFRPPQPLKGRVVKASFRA
Description for Carbonic anhydrase 12: as §1
Description for Carbonic anhydrase 13: as §1
Description for Carbonic anhydrase 14: as §1
Description for Carbonic anhydrase 2: as §1
Description for Carbonic anhydrase 3: as §1
Description for Carbonic anhydrase 4: as §1
Description for Carbonic anhydrase 6: as §1
Description for Carbonic anhydrase 7: as §1

One may read the Ki as a measure of affinity in units of concentration, obtained from inhibition or displacement. High values mean weaker binding, low ones tighter binding. With `NS(=O)(=O)c1ccc(N2CCCCS2(=O)=O)cc1` [Ospolot], the Ki at Carbonic anhydrase 4 was 95 nM; at Carbonic anhydrase 3, 630000 nM; on Carbonic anhydrase 14 it was 1540 nM; in experiment [1], 81 nM; on Carbonic anhydrase 13, 1450 nM; in experiment [2], 91 nM.
Consider `NS(=O)(=O)c1nnc(NC(=O)N[C@]23C[C@H]4C[C@H](C[C@H](C4)C2)C3)s1` [Investigational agent, 5], for which the Ki at Carbonic anhydrase 4 was determined as 30 nM; at Carbonic anhydrase 3, 330000 nM; at Carbonic anhydrase 7, 1.3 nM; on Carbonic anhydrase 14 it was 15 nM; at Carbonic anhydrase 12, 4.7 nM; in [1], 135 nM. For the same compound, the Ki on Carbonic anhydrase 13 was determined as 39 nM; in experiment [2], 45 nM; on Carbonic anhydrase 2, 13 nM; on Carbonic anhydrase 6, 31 nM; on Carbonic anhydrase 1, 810 nM.
With `CC1(C)O[C@@H]2[C@@H](CC[C@@]3(COS(N)(=O)=O)OC(C)(C)O[C@@H]23)O1`, the Ki at Carbonic anhydrase 4 is 4900 nM; at Carbonic anhydrase 3, 780000 nM; on Carbonic anhydrase 14, 1460 nM; at Carbonic anhydrase 12 it was 3.8 nM; in experiment [1] it was 63 nM; on Carbonic anhydrase 13, 47 nM. The Ki in experiment [2] amounted to 30 nM; on Carbonic anhydrase 6, 45 nM; on Carbonic anhydrase 1, 250 nM.
On to `NS(=O)(=O)c1nnc(NC(=O)[C@]23C[C@H]4C[C@H](C[C@H](C4)C2)C3)s1` [Investigational agent, 4], for which the Ki amounted to 310000 nM at Carbonic anhydrase 3, 0.5 nM at Carbonic anhydrase 7, 0.9 nM on Carbonic anhydrase 12 and 850 nM on Carbonic anhydrase 1.
